Data as given in patent EP1444982A1, “The use of purine derivatives as selective kinase inhibitors” (MERCKLE GMBH, priority 2003, dated 2004).

What was measured:
Format in all cases: biochemical
JNK3 (r) = JNK3 (r) (Rattus norvegicus, UniProt P49187); experiment: Kinase inhibition assay: JNK3; conditions: 30µM Testsubstanz (100 µM ATP); read-out: Hemmung von Kinasen in % JNK3 (r)
Source text: (§1) Alle Kinasen werden auf zehnfache Arbeitskonzentration vor Anwendung in dem Essay verdünnt. Die Zusammensetzung des Verdünnungspuffers ist für jede Kinase in der nachfolgenden Tabelle angegeben.
(§2) Alle Substrate werden gelöst und auf eine Stammlösung in entsalztem Wasser verdünnt.

Lck (h) = Lck (h) (Homo sapiens, UniProt P06239); experiment: Kinase inhibition assay (33P-ATP, P30 filter, scintillation counting): Lck; conditions: 30µM Testsubstanz (100 µM ATP); read-out: Hemmung von Kinasen in % Lck (h)
Sequence of Lck (h) (P06239 whole entry): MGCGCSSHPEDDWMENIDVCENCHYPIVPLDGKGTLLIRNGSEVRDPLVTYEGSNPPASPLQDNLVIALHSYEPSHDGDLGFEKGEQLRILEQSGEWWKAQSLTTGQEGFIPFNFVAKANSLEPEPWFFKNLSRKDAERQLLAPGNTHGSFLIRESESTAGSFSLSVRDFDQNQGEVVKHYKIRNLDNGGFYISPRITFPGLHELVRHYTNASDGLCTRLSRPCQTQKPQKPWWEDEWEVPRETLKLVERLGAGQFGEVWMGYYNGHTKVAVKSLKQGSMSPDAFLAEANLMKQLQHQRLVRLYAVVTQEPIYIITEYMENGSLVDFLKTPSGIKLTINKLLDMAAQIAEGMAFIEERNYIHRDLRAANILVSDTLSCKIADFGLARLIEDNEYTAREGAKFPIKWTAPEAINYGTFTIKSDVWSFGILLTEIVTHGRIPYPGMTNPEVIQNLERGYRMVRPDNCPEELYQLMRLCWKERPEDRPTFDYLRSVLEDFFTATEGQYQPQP
Experimental: as §1, §2
(§3) Lck (h)(5-10 mU) in einem Endreaktionsvolumen von 25 µl wird mit 50 mM Tris pH 7.5, 0.1 mM EGTA, 0.1 mM NaVanadate, 250 µM KVEKIGEGTYGVVYK (Cdc2 Peptid), 10 mM MgAcetat und [γ-^33P-ATP] inkubiert (spezifische Aktivität etwa 500 cpm/pmol, Konzentration wie erforderlich). Die Reaktion wird durch Zugabe von Mg^2+[γ-^33P-ATP] initiiert. Nach 40-minütiger Inkubation bei Raumtemperatur wird die Reaktion durch Zugabe von 5 µl einer 3 %igen Phosphorsäurelösung gestoppt. 10 µl der Reaktion werden dann auf ein P30-Filter gegeben und dreimal jeweils 5 Minuten in 50 mM Phosphorsäure und einmal in Methanol gewaschen. Anschließend wird getrocknet und eine Szintillationszählung durchgeführt.

c-RAF (h) = c-RAF (h) (Homo sapiens, UniProt P04049); experiment: Kinase inhibition assay (33P-ATP, P30 filter, scintillation counting): c-RAF; conditions: 40 min; 30µM Testsubstanz (100 µM ATP); read-out: Hemmung von Kinasen in % c-RAF (h)
Sequence of c-RAF (h) (P04049 whole entry): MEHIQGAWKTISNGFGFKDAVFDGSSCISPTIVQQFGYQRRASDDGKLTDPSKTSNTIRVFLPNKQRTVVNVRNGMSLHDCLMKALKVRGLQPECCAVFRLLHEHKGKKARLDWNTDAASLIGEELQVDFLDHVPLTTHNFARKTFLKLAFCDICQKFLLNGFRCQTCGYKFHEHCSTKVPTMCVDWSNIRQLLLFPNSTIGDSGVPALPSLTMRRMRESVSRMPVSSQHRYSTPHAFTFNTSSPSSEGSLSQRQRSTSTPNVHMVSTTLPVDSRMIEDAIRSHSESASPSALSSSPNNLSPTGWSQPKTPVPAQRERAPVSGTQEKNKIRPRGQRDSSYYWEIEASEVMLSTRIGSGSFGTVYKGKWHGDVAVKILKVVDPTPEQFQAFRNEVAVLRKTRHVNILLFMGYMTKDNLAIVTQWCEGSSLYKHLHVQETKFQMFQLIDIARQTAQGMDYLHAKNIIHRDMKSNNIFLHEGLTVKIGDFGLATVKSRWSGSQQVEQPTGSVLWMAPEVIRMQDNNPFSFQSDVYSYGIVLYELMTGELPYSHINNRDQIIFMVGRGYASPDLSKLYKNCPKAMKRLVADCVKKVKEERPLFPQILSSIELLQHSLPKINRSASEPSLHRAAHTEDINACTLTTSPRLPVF
Experimental: as §1, §2
as §3, with “c-RAF (ha)(5-10 mU)” for “Lck (h)(5-10 mU)”, “mit 25” for “mit 50”, “pH 7.5,.0.02” for “pH 7.5, 0.1”, “EGTA, 0.66 mg/ml Myelin-Basisprotein,” for “EGTA, 0.1 mM NaVanadate, 250 µM KVEKIGEGTYGVVYK (Cdc2 Peptid),”, “etwa 50” for “etwa 500”

MAPK2 (h) = MAPK2 (h) (Homo sapiens, UniProt P28482); experiment: Kinase inhibition assay: MAPK2; conditions: 30µM Testsubstanz (100 µM ATP); read-out: Hemmung von Kinasen in % MAPK2 (h)
Sequence of MAPK2 (h) (P28482 whole entry): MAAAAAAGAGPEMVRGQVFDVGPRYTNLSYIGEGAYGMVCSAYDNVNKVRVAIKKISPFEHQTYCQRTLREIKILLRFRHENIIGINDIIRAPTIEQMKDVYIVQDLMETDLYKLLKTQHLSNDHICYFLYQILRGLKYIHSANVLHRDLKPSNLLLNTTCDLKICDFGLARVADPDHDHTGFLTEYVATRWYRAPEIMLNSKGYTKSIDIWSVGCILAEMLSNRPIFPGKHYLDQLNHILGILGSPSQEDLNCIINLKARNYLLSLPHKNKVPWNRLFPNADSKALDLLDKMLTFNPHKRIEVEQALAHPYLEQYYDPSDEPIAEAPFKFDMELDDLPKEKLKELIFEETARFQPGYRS
Source text: as §1, §2

PKB (h) = PKB (h) (Homo sapiens, UniProt P31749); experiment: Kinase inhibition assay (33P-ATP, P30 filter, scintillation counting): PKB; conditions: 40 min; 30µM Testsubstanz (100 µM ATP); read-out: Hemmung von Kinasen in % PKB (h)
Sequence of PKB (h) (P31749 whole entry): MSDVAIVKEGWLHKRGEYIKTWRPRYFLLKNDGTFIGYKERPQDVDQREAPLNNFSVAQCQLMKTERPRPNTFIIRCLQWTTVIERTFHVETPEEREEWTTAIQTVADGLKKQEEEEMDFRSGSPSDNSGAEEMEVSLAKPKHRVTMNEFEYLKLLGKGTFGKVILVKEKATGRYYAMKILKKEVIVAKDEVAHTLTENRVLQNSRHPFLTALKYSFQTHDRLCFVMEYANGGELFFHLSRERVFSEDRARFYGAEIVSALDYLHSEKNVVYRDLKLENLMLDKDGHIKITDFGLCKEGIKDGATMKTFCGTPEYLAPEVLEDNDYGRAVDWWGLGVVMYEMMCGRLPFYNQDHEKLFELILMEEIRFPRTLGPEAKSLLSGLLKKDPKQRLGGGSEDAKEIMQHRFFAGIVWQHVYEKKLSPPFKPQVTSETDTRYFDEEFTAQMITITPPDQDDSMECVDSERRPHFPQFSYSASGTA
Experimental: as §1, §2
PKBα (h)(5-10mU) wird in einem Endreaktionsvolumen von 25 µl mit 8 mM MOPS pH 7.0, 0.2 mM EDTRA, 30 µM GRPRTSSFAEGKK, 10 mM MgAcetat und [γ-^33P-ATP] inkubiert (spezifische Aktivität etwa 50 cpm/pmol, Konzentration wie erforderlich). Die Reaktion wird durch Zugabe von Mg^2+[γ-^33P-ATP] initiiert. Nach 40-minütiger Inkubation bei Raumtemperatur wird die Reaktion durch Zugabe von 5 µl einer 3 %igen Phosphorsäurelösung gestoppt. 10 µl der Reaktion werden dann auf ein P30-Filter gegeben und dreimal jeweils 5 Minuten in 50 mM Phosphorsäure und einmal in Methanol gewaschen. Anschließend wird getrocknet und eine Szintillationszählung durchgeführt.

GSK3β (h) = GSK3β (h) (Homo sapiens, UniProt P49841); experiment: Kinase inhibition assay (33P-ATP, P30 filter, scintillation counting): GSK3β; conditions: 30µM Testsubstanz (100 µM ATP); read-out: Hemmung von Kinasen in % GSK3β (h)
Sequence of GSK3β (h) (P49841 whole entry): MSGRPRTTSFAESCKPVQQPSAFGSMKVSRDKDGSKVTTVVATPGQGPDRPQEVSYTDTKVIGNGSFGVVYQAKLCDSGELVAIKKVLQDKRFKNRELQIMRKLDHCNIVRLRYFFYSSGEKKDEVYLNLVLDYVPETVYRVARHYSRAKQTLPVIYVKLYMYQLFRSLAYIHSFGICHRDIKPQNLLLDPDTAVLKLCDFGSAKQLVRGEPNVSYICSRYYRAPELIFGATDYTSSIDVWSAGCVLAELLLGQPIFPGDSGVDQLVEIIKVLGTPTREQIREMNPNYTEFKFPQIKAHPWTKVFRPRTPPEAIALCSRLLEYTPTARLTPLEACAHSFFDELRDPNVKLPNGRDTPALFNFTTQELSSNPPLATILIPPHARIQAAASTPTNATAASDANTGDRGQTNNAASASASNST
Experimental: as §1, §2
GSK3β (h)(5-10mU) in einem Endreaktionsvolumen von 25 µl wird mit 8 mM MOPS pH 7.0, 0.2 mM EDTA, 20 µM […](p) EDEEE (phospho GS2 Peptid), 10 mM MgAcetat und [γ-^33P-ATP] inkubiert (spezifische Aktivität etwa 500 cpm/pmol, Konzentration wie erforderlich). Die Reaktion wird durch Zugabe von Mg^2+[γ-^33P-ATP] initiiert. Nach 40-minütiger Inkubation bei Raumtemperatur wird die Reaktion durch Zugabe von 5 µl einer 3 %igen Phosphorsäurelösung gestoppt. 10 µl der Reaktion werden dann auf ein P30-Filter gegeben und dreimal jeweils 5 Minuten in 50 mM Phosphorsäure und einmal in Methanol gewaschen. Anschließend wird getrocknet und eine Szintillationszählung durchgeführt.

ROCKII (h) = experiment: Kinase inhibition assay (33P-ATP, P30 filter, scintillation counting): ROCK-II; conditions: 30µM Testsubstanz (100 µM ATP); 40 min
SAPK2a (h) = SAPK2a (h) (Homo sapiens, UniProt Q16539); experiment: Kinase inhibition assay (33P-ATP, P30 filter, scintillation counting): SAPK2a; conditions: 30µM Testsubstanz (100 µM ATP); read-out: Hemmung von Kinasen in % SAPK2a (h)
Sequence of SAPK2a (h) (Q16539 whole entry): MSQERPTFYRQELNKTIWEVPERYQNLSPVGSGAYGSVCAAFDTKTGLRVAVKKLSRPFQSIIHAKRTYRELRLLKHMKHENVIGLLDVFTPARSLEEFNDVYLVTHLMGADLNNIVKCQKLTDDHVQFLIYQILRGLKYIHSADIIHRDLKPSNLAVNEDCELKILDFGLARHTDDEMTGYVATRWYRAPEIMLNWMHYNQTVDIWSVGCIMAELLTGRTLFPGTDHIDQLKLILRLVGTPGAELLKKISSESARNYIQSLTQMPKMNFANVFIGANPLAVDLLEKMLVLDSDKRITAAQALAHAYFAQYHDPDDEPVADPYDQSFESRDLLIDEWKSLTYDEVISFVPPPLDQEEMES
Experimental: as §1, §2
as §3, with “SAPK2a (h) wird in” for “Lck (h)(5-10 mU) in”, “µl” for “µl wird”, “mit 25” for “mit 50”, “pH 7,5, 0.02” for “pH 7.5, 0.1”, “EGTA, 0.33 mg/ml Myelin-Basisprotein,” for “EGTA, 0.1 mM NaVanadate, 250 µM KVEKIGEGTYGVVYK (Cdc2 Peptid),”, “etwa 50” for “etwa 500”

MAPK1 (h) = MAPK1 (h) (Homo sapiens, UniProt P27361); experiment: Kinase inhibition assay: MAPK1; conditions: 30µM Testsubstanz (100 µM ATP); read-out: Hemmung von Kinasen in % MAPK1 (h)
Sequence of MAPK1 (h) (P27361 whole entry): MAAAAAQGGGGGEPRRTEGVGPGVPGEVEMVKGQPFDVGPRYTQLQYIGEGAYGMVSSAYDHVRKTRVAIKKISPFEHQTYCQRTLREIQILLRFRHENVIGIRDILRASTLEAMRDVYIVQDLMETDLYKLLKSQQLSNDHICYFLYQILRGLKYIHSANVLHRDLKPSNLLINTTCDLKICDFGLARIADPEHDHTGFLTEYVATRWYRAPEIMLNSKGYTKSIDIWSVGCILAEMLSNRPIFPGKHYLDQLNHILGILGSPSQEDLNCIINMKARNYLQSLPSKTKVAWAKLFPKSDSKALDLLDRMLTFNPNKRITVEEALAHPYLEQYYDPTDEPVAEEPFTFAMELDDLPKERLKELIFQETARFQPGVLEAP
Source text: as §1, §2

MEK1 (h) = MEK1 (h) (Homo sapiens, UniProt Q02750); experiment: Kinase inhibition assay: MEK1 (coupled to MAPK2 assay); conditions: 30µM Testsubstanz (100 µM ATP); read-out: Hemmung von Kinasen in % MEK1 (h)
Sequence of MEK1 (h) (Q02750 whole entry): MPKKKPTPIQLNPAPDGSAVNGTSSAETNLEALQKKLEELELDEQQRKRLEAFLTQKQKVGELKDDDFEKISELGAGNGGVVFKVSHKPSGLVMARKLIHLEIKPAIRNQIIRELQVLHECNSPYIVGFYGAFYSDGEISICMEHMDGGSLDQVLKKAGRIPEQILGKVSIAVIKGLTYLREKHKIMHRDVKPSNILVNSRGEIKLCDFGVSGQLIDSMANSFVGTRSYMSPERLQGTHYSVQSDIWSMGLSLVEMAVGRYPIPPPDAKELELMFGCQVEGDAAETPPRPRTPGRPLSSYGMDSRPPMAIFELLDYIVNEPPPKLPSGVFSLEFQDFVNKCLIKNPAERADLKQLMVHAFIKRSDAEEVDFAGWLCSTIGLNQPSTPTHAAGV
Experimental: as §1, §2
MEK1 (h)(1-5 mU) in einem Endreaktionsvolumen von 25 µl wird mit 50 mM Tris pH 7.5, 0.2 mM EGTA, 0.1 % b-Mercaptoethanol, 0,01 % Brij-35, 1 µM inaktives MAPK2 (m), 10 mM MgAcetat und kaltem ATP inkubiert (Konzentration wie erforderlich). Die Reaktion wird durch Zugabe von MgATB initiiert. Nach 40-minütiger Inkubation bei Raumtemperatur werden […] dieses Inkubationsgemisches dazu verwendet, den oben beschriebenen MAPK2-Assay zu initiieren.

PKA (h) = experiment: Kinase inhibition assay (33P-ATP, P30 filter, scintillation counting): PKA; conditions: 30µM Testsubstanz (100 µM ATP); 40 min

Sequence of JNK3 (r) (P49187 whole entry): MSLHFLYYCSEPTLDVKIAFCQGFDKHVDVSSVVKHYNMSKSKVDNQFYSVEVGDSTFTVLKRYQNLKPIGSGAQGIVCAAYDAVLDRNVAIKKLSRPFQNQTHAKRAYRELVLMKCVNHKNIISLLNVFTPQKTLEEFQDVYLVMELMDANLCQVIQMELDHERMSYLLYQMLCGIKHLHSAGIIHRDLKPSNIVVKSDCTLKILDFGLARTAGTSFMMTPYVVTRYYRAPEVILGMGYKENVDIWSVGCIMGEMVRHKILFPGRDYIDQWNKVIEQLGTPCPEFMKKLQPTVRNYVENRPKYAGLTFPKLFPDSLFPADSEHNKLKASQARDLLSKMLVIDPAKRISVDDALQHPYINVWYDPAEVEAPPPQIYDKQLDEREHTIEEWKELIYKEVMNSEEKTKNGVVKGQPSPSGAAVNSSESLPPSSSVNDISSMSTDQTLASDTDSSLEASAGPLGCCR

Compound | inhibition at 30 µM (JNK3 (r)) [%] | inhibition at 30 µM (Lck (h)) [%] | inhibition at 30 µM (c-RAF (h)) [%] | inhibition at 30 µM (MAPK2 (h)) [%] | inhibition at 30 µM (PKB (h)) [%] | inhibition at 30 µM (GSK3β (h)) [%] | Hemmung von Kinasen in % ROCKII (h) (ROCKII (h)) [%] | inhibition at 30 µM (SAPK2a (h)) [%] | inhibition at 30 µM (MAPK1 (h)) [%] | inhibition at 30 µM (MEK1 (h)) [%] | Hemmung von Kinasen in % PKA (h) (PKA (h)) [%]
c1ccc(Nc2ncnc3[nH]cnc23)cc1 [Verbd. 1, Phenyl-(9H-purin-6-yl)-amin] | 11 | 39 | 19 | 33 | 14 | 13 | 48 | 34 | 22 | 19 | 32
Cn1c(-c2ccc([S+](C)[O-])cc2)nc2c(Sc3ccc(F)cc3)ncnc21 (centres unmarked) [Verbd. 60, 6-(4-Fluoro-phenylsulfanyl)-8-(4-methan-sulfinyl-phenyl)-9-methyl-9H-purin] | 10 | 30 | 4 | 0 | 10 | 4 | 0 | 44 | 0 | 1 | 4
Nc1ncnc2ncn(Cc3ccc(F)cc3)c12 [Verbd. 43, 7-(4-Fluoro-benzyl)-7H-purin-6-ylamin] | 25 | 0 | 28 | 5 | 0 | 0 | 6 | 8 | 26 | 8 | 7
Cn1c(-c2ccccc2)nc2c(Sc3ccc(F)cc3)ncnc21 [Verbd. 24, 6-(4-Fluoro-phenylsulfanyl)-9-methyl-8-phenyl-9H-purin] | 16 | 20 | 14 | 1 | 29 | 22 | 9 | 29 | 11 | 7 | 3
COc1ncnc2ncn(Cc3ccc(F)cc3)c12 [Verbd. 44, 7-(4-Fluoro-benzyl)-6-methoxy-7H-purin] | 30 | 0 | 0 | 3 | 0 | 5 | 1 | 8 | 19 | 3 | 7
Fc1ccc(Sc2ncnc3[nH]cnc23)cc1 [Verbd. 16, 6-(4-Fluoro-phenylsulfanyl)-9H-purin] | 8 | 13 | 29 | 12 | 0 | 0 | 37 | 72 | 2 | 2 | 10
Cn1cnc2c(Nc3ccc(F)cc3)ncnc21 [Verbd. 14, (4-Fluoro-phenyl)-(9-methyl-9H-purin-6-yl)-amin] | 19 | 9 | 27 | 57 | 0 | 14 | 7 | 13 | 36 | 8 | 0
Cn1c(-c2ccc(S(C)(=O)=O)cc2)nc2c(Sc3ccccc3)ncnc21 [Verbd. 62, 8-(4-Methansulfonyl-phenyl)-9-methyl-6-phenylsulfanyl-9H-purin] | 7 | 16 | 10 | 3 | 14 | 0 | 5 | 36 | 9 | 4 | 11
Fc1ccc(Nc2ncnc3[nH]cnc23)cc1 [Verbd. 2, (4-Fluoro-phenyl)-(9H-purin-6-yl)-amin] | 10 | 42 | 24 | 48 | 18 | 13 | 52 | 30 | 33 | 34 | 40
Fc1ccc(Cn2cnc3c(Sc4ccccc4)ncnc32)cc1 [Verbd. 76, 9-(4-Fluoro-benzyl)-6-phenylsulfanyl-9H-purin] | 0 | 12 | 0 | 0 | 13 | 0 | 2 | 67 | 17 | 1 | 0
Fc1ccc(Sc2ncnc3c2ncn3Cc2ccccc2)cc1 [Verbd. 75, 9-Benzyl-6-(4-fluoro-phenylsulfanyl)-9H-purin] | 0 | 16 | 0 | 0 | 1 | 0 | 5 | 64 | 0 | 4 | 0
Fc1ccc(CSc2ncnc3[nH]cnc23)cc1 [Verbd. 10, 6-(4-Fluoro-benzylsulfanyl)-9H-purin] | 12 | 16 | 47 | 5 | 6 | 0 | 18 | 29 | 9 | 0 | –
